# In ChEMBL document CHEMBL1201862, “PubChem BioAssay data set” (2004):
# “And” between values parts separate entries of the source, which are not always exact repeats. Identical values can stand only once.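 Interpolation was linear, between the two tested concentrations surrounding the appropriate level; five concentrations were tested over 48 hours in 96-well plates. Here, GI50 denotes the concentration required for 50% inhibition of growth.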 The source made the active and inactive calls. Cut-off read from the data, not from the text of the source: active = GI50 up to about 1.1 µM and inactive = higher.
# How the values were obtained:
# Test in all cases: NCI tumour cell line growth inhibition, 48 h
# LOX IMVI = system: LOX IMVI
# HOP-62 = system: HOP-62
# SN12C = system: SN12C
# 786-0 = system: 786-0
# COLO 205 = system: COLO 205
# SR = system: SR
# SK-MEL-5 = system: SK-MEL-5
# BT-549 = system: BT-549
# ACHN = system: ACHN
# NCI-H522 = system: NCI-H522
# KM12 = system: KM12
# UO-31 = system: UO-31
# SK-MEL-28 = system: SK-MEL-28
# SNB-19 = system: SNB-19
# CAKI-1 = system: CAKI-1
# NCI-H460 = system: NCI-H460
# UACC-62 = system: UACC-62
# SF-539 = system: SF-539
# HOP-92 = system: HOP-92
Compound,GI50 (LOX IMVI),GI50 (HOP-62),GI50 (SN12C),GI50 (786-0),GI50 (COLO 205),GI50 (SR),GI50 (SK-MEL-5),GI50 (BT-549),GI50 (ACHN),GI50 (NCI-H522),GI50 (KM12),GI50 (UO-31),GI50 (SK-MEL-28),GI50 (SNB-19),GI50 (CAKI-1),GI50 (NCI-H460),GI50 (UACC-62),GI50 (SF-539),GI50 (HOP-92)
O=C(COc1ccc(OCC(=O)N/N=C/c2ccc(-c3ccc(Cl)cc3Cl)o2)c(Cl)c1)N/N=C/c1ccc(-c2ccc(Cl)cc2Cl)o1,57.9 µM (inactive),27.5 µM (inactive),> 100 µM (inactive),94.4 µM (inactive),0.942 µM (active),0.342 µM (active),> 100 µM (inactive),83.9 µM (inactive),70.1 µM (inactive),81.8 µM (inactive),> 100 µM (inactive),> 100 µM (inactive),> 100 µM (inactive),> 100 µM (inactive),> 100 µM (inactive),> 100 µM (inactive),27.9 µM (inactive),–,–
O=C(CCCN1CCC(Nc2ccc(F)cc2)(c2nnnn2C2CCCCC2)CC1)c1ccc(F)cc1,19.4 µM (inactive),16.9 µM (inactive),31.5 µM (inactive),17.8 µM (inactive),14.3 µM (inactive),11.7 µM (inactive),20.7 µM (inactive),16.5 µM (inactive),10.6 µM (inactive),16.3 µM (inactive),3.52 µM (inactive),14.1 µM (inactive),16.2 µM (inactive),15.6 µM (inactive),–,11.6 µM (inactive),3.3 µM (inactive),12.6 µM (inactive),–
COc1ccc(/N=N/C(=O)NC(CC(C)C)C(=O)NC(Cc2ccccc2)C(=O)O)cc1 (stereo not given),18.2 µM (inactive),> 100 µM (inactive),> 100 µM (inactive),> 100 µM (inactive),1.71 µM (inactive),–,2.61 µM (inactive),> 100 µM (inactive),0.347 µM (active),6.24 µM (inactive),11.9 µM (inactive),3.37 µM (inactive),4.85 µM (inactive),72.9 µM (inactive),> 100 µM (inactive),3.78 µM (inactive),0.711 µM (active),0.31 µM (active),16.2 µM (inactive)
CC(C)(NC(=O)OCc1ccccc1)C(=O)OC(=O)C(C)(C)NC(=O)OCc1ccccc1,> 100 µM (inactive),> 100 µM (inactive),> 100 µM (inactive),> 100 µM (inactive),> 100 µM (inactive),–,> 100 µM (inactive),> 100 µM (inactive),> 100 µM (inactive),> 100 µM (inactive),> 100 µM (inactive),> 100 µM (inactive),> 100 µM (inactive),> 100 µM (inactive),> 100 µM (inactive),> 100 µM (inactive),18.3 µM (inactive),> 100 µM (inactive),> 100 µM (inactive)
CC(=O)C1C(=O)C(=O)N(c2ccccc2)C1=O (stereo not given),> 100 µM (inactive),> 100 µM (inactive),> 100 µM (inactive),> 100 µM (inactive),> 100 µM (inactive),–,> 100 µM (inactive),> 100 µM (inactive),> 100 µM (inactive),> 100 µM (inactive),> 100 µM (inactive),> 100 µM (inactive),> 100 µM (inactive),> 100 µM (inactive),> 100 µM (inactive),> 100 µM (inactive),> 100 µM (inactive),> 100 µM (inactive),> 100 µM (inactive)
c1ccc2nn(C3CCCO3)nc2c1 (stereo not given),–,> 100 µM (inactive),> 100 µM (inactive),> 100 µM (inactive),> 100 µM (inactive),–,> 100 µM (inactive),> 100 µM (inactive),–,> 100 µM (inactive),–,–,–,–,> 100 µM (inactive),> 100 µM (inactive),> 100 µM (inactive),> 100 µM (inactive),–
CCN1CC2=C(NC(=S)NC2c2ccc(Cl)cc2)/C(=C/c2ccc(Cl)cc2)C1 (stereo not given),> 100 µM (inactive),> 100 µM (inactive),–,45.6 µM (inactive),> 100 µM (inactive),–,97.7 µM (inactive),> 100 µM (inactive),55.7 µM (inactive),> 100 µM (inactive),> 100 µM (inactive),> 100 µM (inactive),24.4 µM (inactive),68.9 µM (inactive),35.7 µM (inactive),18.5 µM (inactive),29.3 µM (inactive),–,–
NNC(=O)c1nnn(CCc2ccccc2)c1C(=O)NN,> 100 µM (inactive),> 100 µM (inactive),> 100 µM (inactive),> 100 µM (inactive),> 100 µM (inactive),> 100 µM (inactive),> 100 µM (inactive),> 100 µM (inactive),> 100 µM (inactive),–,> 100 µM (inactive),> 100 µM (inactive),> 100 µM (inactive),> 100 µM (inactive),> 100 µM (inactive),> 100 µM (inactive),–,–,–
CNc1ccc(Cl)cc1S(=O)(=O)c1ccccc1[N+](=O)[O-],> 100 µM (inactive),> 100 µM (inactive),> 100 µM (inactive),> 100 µM (inactive),> 100 µM (inactive),> 100 µM (inactive),46.7 µM (inactive),> 100 µM (inactive),> 100 µM (inactive),> 100 µM (inactive),–,> 100 µM (inactive),> 100 µM (inactive),> 100 µM (inactive),–,> 100 µM (inactive),> 100 µM (inactive),> 100 µM (inactive),–
c1sc(NC2=NCCO2)c2c1CCCC2,> 100 µM (inactive),–,–,> 100 µM (inactive),> 100 µM (inactive),> 100 µM (inactive),> 100 µM (inactive),> 100 µM (inactive),> 100 µM (inactive),> 100 µM (inactive),> 100 µM (inactive),> 100 µM (inactive),> 100 µM (inactive),> 100 µM (inactive),> 100 µM (inactive),> 100 µM (inactive),> 100 µM (inactive),> 100 µM (inactive),> 100 µM (inactive)
C=CCN1CCC(c2cc(C(=O)OCC)[nH]c2-c2cc(C)no2)C1=O (stereo not given),> 100 µM (inactive),> 100 µM (inactive),> 100 µM (inactive),> 100 µM (inactive),> 100 µM (inactive),43.8 µM (inactive),> 100 µM (inactive),> 100 µM (inactive),–,–,> 100 µM (inactive),> 100 µM (inactive),> 100 µM (inactive),> 100 µM (inactive),> 100 µM (inactive),> 100 µM (inactive),> 100 µM (inactive),> 100 µM (inactive),> 100 µM (inactive)
CC(C)COC(=O)N1N=NC2C3OC(CC3=O)C21 (stereo not given),> 100 µM (inactive),> 100 µM (inactive),> 100 µM (inactive),> 100 µM (inactive),> 100 µM (inactive),> 100 µM (inactive),> 100 µM (inactive),–,> 100 µM (inactive),> 100 µM (inactive),> 100 µM (inactive),> 100 µM (inactive),> 100 µM (inactive),> 100 µM (inactive),> 100 µM (inactive),> 100 µM (inactive),43.6 µM (inactive),> 100 µM (inactive),> 100 µM (inactive)
COc1c(C(=O)/C(=N/Nc2ccc(C(=O)O)cc2)C(C)=O)c(O)cc2occc12,> 100 µM (inactive),> 100 µM (inactive),> 100 µM (inactive),> 100 µM (inactive),> 100 µM (inactive),68.9 µM (inactive),28.8 µM (inactive),–,> 100 µM (inactive),51.3 µM (inactive),55 µM (inactive),> 100 µM (inactive),> 100 µM (inactive),> 100 µM (inactive),> 100 µM (inactive),82 µM (inactive),> 100 µM (inactive),> 100 µM (inactive),43.4 µM (inactive)
N#Cc1c(-c2ccccc2)c(/C=N/c2ccc(Cl)cc2)c(=O)n2c1[nH]c1ccccc12,> 100 µM (inactive),73.5 µM (inactive),97.7 µM (inactive),> 100 µM (inactive),83 µM (inactive),–,> 100 µM (inactive),> 100 µM (inactive),65.2 µM (inactive),61.2 µM (inactive),54.1 µM (inactive),34.4 µM (inactive),> 100 µM (inactive),> 100 µM (inactive),20.1 µM (inactive),> 100 µM (inactive),–,> 100 µM (inactive),–
COC1C(OC(C)=O)CC(=O)OC(C)C/C=C/C=C\C(O)C(C)CC(CC=O)C1OC1OC(C)C(OC2CC(C)(O)C(OC(=O)CC(C)C)C(C)O2)C(N(C)C)C1O (stereo not given),–,> 100 µM (inactive),> 100 µM (inactive),> 100 µM (inactive),> 100 µM (inactive) and 69.7 µM (inactive),24.6 µM (inactive) and 18.5 µM (inactive),46.9 µM (inactive) and 39.3 µM (inactive),> 100 µM (inactive),> 100 µM (inactive),> 100 µM (inactive),–,64.9 µM (inactive) and 43.8 µM (inactive),> 100 µM (inactive),> 100 µM (inactive) and 77.6 µM (inactive),> 100 µM (inactive),> 100 µM (inactive),> 100 µM (inactive),> 100 µM (inactive),> 100 µM (inactive)
N#CCCN(CCC#N)c1ccc(/C=C2\N=C(c3ccccc3)N(c3ccc(Cl)cc3)C2=O)cc1,2.5 µM (inactive),> 100 µM (inactive),> 100 µM (inactive),> 100 µM (inactive),> 100 µM (inactive),–,76.7 µM (inactive),> 100 µM (inactive),> 100 µM (inactive),> 100 µM (inactive),58.7 µM (inactive),45.4 µM (inactive),> 100 µM (inactive),> 100 µM (inactive),–,> 100 µM (inactive),39.7 µM (inactive),> 100 µM (inactive),> 100 µM (inactive)
